Measured values published in patent EP0902002A1, “New derivatives of phthalaldehyde, process for their preparation and their use” (Hoechst Marion Roussel Deutschland GmbH, priority 1997, dated 1999).

Assay: Physicochemical properties: solubility and pH stability

Löslichkeit (in Alkoholen und anderen polaren organischen Lösungsmitteln): lösliche
Stabilität (in neutralem und mild saurem Milieu (vorzugsweise > pH 2)): stabil
Stabilität (in stark alkalischer Lösung (beispielsweise > pH 8)): unbeständig
SMILES: CC(CCc1c(O)cc(C=O)c(C=O)c1O)C(=O)O (stereo not drawn) [Hericenal C]
